Measured values from US9023853B2, “Janus kinase 2 (JAK2) inhibitor for the treatment of lupus” (Cephalon, Inc., priority 2010, dated 2015).

What was measured:
Assay type in all cases: in vivo, mouse
KC/IL-8 = test: Serum KC/IL-8 in NZM mice
Method: (§1) For the processing of serum samples for cytokine analysis, frozen plasma at −80° C. was thawed on ice, vortexed, and centrifuged for 10 minutes to remove debris and aggregates. A total of 25-50 μL of serum was used for Luminex® assays following the manufacturer's instructions. Ten different mouse cytokines were measured using the mouse cytokine 10-plex bead kit (Invitrogen, Carlsbad, Calif., no. LMC0001). Briefly, filter plates (Millipore, Billerica, Mass., no. MAIPSWU10), were pre-wet with 200 μL of wash solution (kit component) and 25 μL of beads were added per well. […]
(§2) Age mated, female, NZM or NZW/LacJ, mice were matured for the study of lupus nephritis for a total of 7 months or 210 days at which time urine was collected for proteinuria detection. Mice with 0.5-1.0 mg/ml of urine protein as determined by an optical density-based total protein precipitation assay and cross-checked for 30-300 mg/dl of protein as determined by a stick assay were considered proteinuria positive and selected for study entry. […] End-stage lupus nephritis was evaluated by histopathology and scored by a board certified pathologist for the assessment of total renal damage in diseased animals using the scoring method described by Smith et al (Smith, Dong et al. 2007). […]

plasma cells = test: Spleen plasma cells by flow cytometry in MRL/lpr mice; settings: 100 mg/kg, p<0.01
Method: Antibodies used for flow cytometry consisted of anti-mouse CD138-APC (eBioscience, San Diego, Calif.), anti-mouse CD19-FITC (eBioscience, San Diego, Calif.), anti-mouse CD38-PE (eBioscience, San Diego, Calif.) and anti-mouse CD45R/B220-Cyc (eBioscience, San Diego, Calif.), Rat IgG1-APC isotype control (eBioscience, San Diego, Calif.), Rat IgG2a-PE isotype control (eBioscience, San Diego, Calif.). All samples were analyzed using an Accuri C6 Flow Cytometer. Complete media was used for all experiments involving the ex vivo culture of splenocytes for all Elispot experiments. Complete media consisted of RPMI1640 (Cellgro, Manassas, Va.), plus 1% Pen-Strep (Cellgro, Manassas, Va.), 1% L-Gln (Cellgro, Manassas, Va.), 1% NEAA (Cellgro, Manassas, Va.), β-ME (Cellgro, Manassas, Va.), plus 10% FBS (Cellgro, Manassas, Va.).
Washed, RBC-lysed splenocytes were stained for plasma cell markers as previously used in published reports (Neubert, Meister et al. 2008). As used herein the term “plasma cell” will refer to the following immunophenotype definition: Plasma cells were defined as live CD19-negative, CD45R/B220-negative, CD138-positive, CD38-positive events for the MRL/lpr model. A total of 200,000-500,000 events were collected per tube/sample. Insufficient sample limited plasma cell determination in bone marrow. […]

TNFα = test: Serum TNFα in NZM mice
Method: as §1, §2

C3 = test: Serum complement C3 in MRL/lpr mice
Description: MRL/lpr mice were first randomized, initial bleeds collected, and body weights recorded for baseline measurements (FIG. 1). All mice were individually ear tagged and were monitored throughout the entire experiment (e.g., “Group#-Cage letter-Mouse#”, so “3B5”=Group 3 (G3), cage B, mouse#5). Mice were age-matched and treatment started at 6-8 weeks of age. Cheek bleeds and urine collection continued weekly throughout the experiment. Mice were individually tracked for several parameters including cytokine and ANA levels, proteinuria, body mass, lymphomegaly, general health, and mortality. All parameters were evaluated bi-monthly except mortality which was monitored daily. All groups consisted of a minimum of at least 10-12 mice per group. Ex vivo experiments included flow cytometry analyses for plasma cells, serum complement C3 and ANA levels; urine protein and leukocytes, serum cytokine profiling, renal histo pathology, and determination of compound levels (pharmacokinetics (PK)) in the spleen, kidney and plasma. Mice were tracked on an individual basis. For all data, mice were grouped into populations and data graphed as mean±SEM. Bi-monthly observations and data collected were recorded for each group, except mortality which was performed daily. End-stage readouts were analyzed as described in the MATERIALS AND METHODS section (above) and in FIG. 1. […]

CN1CCN(c2cccc(Nc3nc4c(-c5ccc(S(C)(=O)=O)cc5)cccn4n3)c2)CC1 [COMPOUND A, [8-(4-methanesulfonyl-phenyl)-[1,2,4]triazolo[1,5-a]pyridin-2-yl]-[3-(4-methyl-piperazin-1-yl)-phenyl]-amine]
serum KC/IL-8 decrease compared to vehicle (KC/IL-8; 55 mg/kg): 78.0%
serum KC/IL-8 decrease compared to vehicle (KC/IL-8; 100 mg/kg): 72.9%
spleen plasma cells decrease vs vehicle (plasma cells): 65.5%
serum TNFα decrease compared to vehicle (TNFα; 55 mg/kg): 92.3%
serum TNFα decrease compared to vehicle (TNFα; 100 mg/kg): 88.3%
serum C3 increase over vehicle (C3; 55 mg/kg p.o. b.i.d.): 51.4%
serum C3 increase over vehicle (C3; 100 mg/kg p.o. b.i.d.): 52.5%
